Results as given in patent EP0234499A2, “Antifungal azolylpropanol derivatives” (SHIONOGI SEIYAKU KABUSHIKI KAISHA, priority 1986, dated 1987).

What was measured:
Candida albicans KE-2 [1] = test: Therapeutic effect against experimental candidiasis in mice; assay type: in vivo, Jcl-ICR female mice; conditions: mouse survival ratio on the 5th day after infection, 50 mg/kg orally three times (0, 4 and 24 hours after infection), i.v. infection with 2 x 10^6 cells, eight mice per group; for responders at 50 mg/kg: Candida albicans, KE2, po, 120 h; for Therapeutic Effect (%): 50 mg/kg
Description: Therapeutic effect against experimental candidiasis in mice After Candida albicans KE-2 is incubated on Sabouraud's glucose agar at 28 °C for 48 hr., it is suspended in Sabouraud's glucose broth and the cells (2 ^x 10^6) are injected to a tail vein of Jcl-ICR female mice (4 weeks age; weight : 18 - 20 g). A suspension of the test compound in 2 % gum arabic is orally administered three times, immediately after infection of the yeast ( 0 hour), after 4 hours and after 24 hours, as a dosage of 50 mg/kg. Non-treated group is used as control. Eight mice per group are used in the control group and the treated group. All the mice in the control group died within 48 hours after infection. Therapeutic effect of the test compound is judged by mouse survival ratio on the 5th day after infection.

Candida albicans KE-2 [2] = test: Inhibition test against pseudomycelium formation of Candida albicans; assay type: cell-based; conditions: minimum effective concentration preventing typical pseudomycelium formation, Eagle-MEM medium with 20 % calf serum, 1 x 10^6 yeast cells/ml, 18 hours at 37 °C, two fold dilution series; for minimal effective concentration: Candida albicans, KE2, read-out: Inhibition for Pseudomyselium Formation of Candida albicans (MEC, μg/ml)
Description: Inhibition test against psendomycelium formation of Candida albicans Candida albicans KE-2 was inoculated to Eagle-MEM medium (Nissan 2 made by Nissui Seiyaku, Ltd.) supplemented with 20 % calf serum so that its final inoculum of yeast cell might be 1 x 10^6 yeast cells per milliliter. The test compounds are added thereon in two fold dilution series. After incubation for 18 hours at 37 °C, the fungal growth in each drug concentration is smeared and fixed on a slide glass, and its morphological feature on the presence or absence of the psendomycelium formation is examined by a microscope following Giemsa staining. Minimum effective concentration (MEC, µg/ml) is defined as the lowest concentration of the compound which prevented typical pseudo- mycelium formation.

Structure (SMILES)	responders at 50 mg/kg (Candida albicans KE-2 [1]) [%]	minimal effective concentration (Candida albicans KE-2 [2]) [µg/mL]	Inhibition for Pseudomyselium Formation of Candida albicans (MEC, μg/ml) (Candida albicans KE-2 [2]) [µg/mL]	Therapeutic Effect (%) (Candida albicans KE-2 [1])
CCOC(n1cncn1)C(O)(Cn1cncn1)c1ccc(Cl)cc1Cl (centres unmarked) [Compound 54]	87.5			
COC(n1cncn1)C(O)(Cn1ccnc1)c1ccc(Cl)cc1Cl (single isomer, unassigned) [Compound 44]	12.5			
COC(n1cccn1)C(O)(Cn1cccn1)c1ccc(Cl)cc1 (single isomer, unassigned) [Compound 38]	25	0.31		
COC(n1cccn1)C(O)(Cn1cncn1)c1ccc(Cl)cc1 (single isomer, unassigned) [Compound 37]	62.5		0.63	
COC(n1cccn1)C(O)(Cn1cncn1)c1ccc(Cl)cc1 (single isomer, unassigned) [Compound 34]		0.63		
COC(n1cncn1)C(O)(Cn1cncn1)c1ccc(F)cc1F (single isomer, unassigned) [Compound 47, 2-(2,4-Difluorophenyl)-1-methoxy-1,3-bis(1H-1,2,4-tri-azol-1-yl)-2-propanol]			0.31	
COC(n1cccn1)C(O)(Cn1ccnc1)c1ccc(Cl)cc1 (single isomer, unassigned) [Compound 36]			0.08	37.5
COC(n1cncn1)C(O)(Cn1cncn1)c1ccc(F)cc1 (single isomer, unassigned) [Compound 24]	87.5	1.25		
COC(n1cncn1)C(O)(Cn1cncn1)c1ccccc1F (single isomer, unassigned) [Compound 51]		0.63		
COC(n1cnc(C)c1)C(O)(Cn1cncn1)c1ccc(Cl)cc1 (single isomer, unassigned) [Compound 46]	12.5	0.08		
COC(n1cccn1)C(O)(Cn1cncn1)c1ccc(F)cc1 (single isomer, unassigned) [Compound 27]	25			
COC(n1cccn1)C(O)(Cn1ccnc1)c1ccc(F)cc1F (single isomer, unassigned) [Compound 30]			0.31	50.0
COC(n1cccn1)C(O)(Cn1ccnc1)c1ccc(Cl)cc1 (single isomer, unassigned) [Compound 35]	25	0.04		
COC(n1cccn1)C(O)(Cn1ccnc1)c1ccc(F)cc1 (single isomer, unassigned) [Compound 31]			1.25	37.5
COC(n1cncn1)C(O)(Cn1ccnc1)c1ccc(F)cc1F (single isomer, unassigned) [Compound 40]	37.5			
COC(n1ccnc1C)C(O)(Cn1cncn1)c1ccc(Cl)cc1 (single isomer, unassigned) [Compound 45]	37.5			
COC(n1cncn1)C(O)(Cn1cncn1)c1ccc(F)cc1F (single isomer, unassigned) [Compound 21, 2-(2,4-Difluorophenyl)-1-methoxy-1,3-bis(1H-1,2,4-tri-azol-1-yl)-2-propanol]	87.5		0.63	
COC(n1cccn1)C(O)(Cn1ccnc1)c1ccc(F)cc1F (single isomer, unassigned) [Compound 29]		0.31		100.0
COC(n1cncn1)C(O)(Cn1cncn1)c1ccc(Cl)cc1Cl (single isomer, unassigned) [Compound 25]	100	0.31		
COC(n1cccn1)C(O)(Cn1ccnc1)c1ccc(F)cc1 (single isomer, unassigned) [Compound 28]			0.08	62.5
COC(n1cccn1)C(O)(Cn1cncn1)c1ccc(F)cc1F (single isomer, unassigned) [Compound 49]	75	0.31		
CCOC(n1cncn1)C(O)(Cn1cncn1)c1ccc(F)cc1 (single isomer, unassigned) [Compound 33]		1.25		
OC(Cn1cncn1)(c1ccc(F)cc1)C(OCC(F)(F)F)n1cncn1 (single isomer, unassigned) [Compound 32]	50			
COC(n1ccnc1)C(O)(Cn1cncn1)c1ccc(Cl)cc1 (single isomer, unassigned) [Compound 23]		0.63		
COC(n1cncn1)C(O)(Cn1cncn1)c1ccc(Cl)cc1 (single isomer, unassigned) [Compound 26]	100			
